Test results from US20220412956A1, “METHODS FOR ASSESSING TOXICITY OF A COMPOUND” (The Chinese University of Hong Kong, priority 2021, published 2022).
Entries after “also recorded” stand apart in the source; their conditions may differ. Where two headings read alike, the source gives them in different places.

Key:
hiPSC-CMs [1] = assay: Mitochondrial morphology, Mitotracker staining (elongated / punctate / perinuclear); parameters: perinuclear mitochondria: dose or concentration left out as unconfirmed; conditions: for mitochondrial morphology (MTDR dye): FIG. 8B, treated CMs vs control; for proportion of cells with healthy elongated mitochondria: FIG. 8C; for proportion of cells with punctate, fragmented mitochondria / proportion of punctate mitochondria / proportion of elongated mitochondria: 3 days; for proportion of cells with punctate, fragmented mitochondria: control 21.0±5.9%; for proportion of cells with punctate mitochondria / elongated mitochondria: 3 days hypoxic treatment + 3 days recovery; for proportion of cells with punctate mitochondria: control 46.1±[…]; for elongated mitochondria: control 47.4±4.9%; for proportion of punctate mitochondria / proportion of elongated mitochondria: hypoxic; for proportion of punctate mitochondria: control 37.3±6.1%; for proportion of elongated mitochondria: control 45.1±7.8%
hiPSC-CMs [2] = system: hiPSC-CMs
hiPSC-CMs [3] = system: hiPSC-CMs; remark: listed apart in the source
[4] = molecular target: human mitochondrial RNA polymerase (Homo sapiens, UniProt O00411); conditions: purified enzyme; cited from earlier work
[5] = system: ND1, ND5, SDHA, COX6A2, ATP6, ACADVL mRNA; assay: qRT-PCR of genes important for mitochondrial function; assay type: cell-based, human; conditions: 3 days, normoxic or hypoxic, normalised to B2M
Procedure: Total RNA was extracted using Trizol Reagent according to the manufacturer's instructions (Thermo Fisher Scientific). Extracted RNA was reverse transcribed using PrimeScript RT Master Mix (Takara). Quantitative RT-PCR of target genes was performed with GoTaq® qPCR Master Mix (Promega) using an QuantStudio™ 12K Flex. Gene transcript abundance was normalised to B2M and then to that of the untreated sample to control for biological variations among the different sets of samples.
Of the ETC genes, ND1, ND5 and ATP6 are encoded by the mitochondrial genome, while COX6A2 and SDHA are encoded by the nuclear genome. […] Overall, the general repression of ETC gene transcripts was consistent with and might contribute to the reduced redox potential observed (FIG. 1A).

hiPSC-CMs [6] = assay: In vitro hiPSC-CM cardiotoxicity model, overall; assay type: cell-based, human; conditions: 0.1 μM and 0.5 μM
Description: Importantly, these changes persisted and worsened after the withdrawal of this drug.
Human iPSC-CMs were exposed to remdesivir under normal and hypoxic conditions for three days. There is a paucity of data which directly correlates oxygen saturation in vivo with oxygen concentration in vitro. […] Human iPSC-CMs exposed to 2.5% 02 were viable, beat and were morphologically indistinguishable from hiPSC-CMs cultured under normoxic (20% 02) conditions.
Importantly, these abnormalities persisted after cessation of treatment, culminating in increased cell death.

hPSC-CMs = conditions: cited from earlier work
hiPSC-CMs [7] = conditions: human
[8] = system: HT29, HCT116, HepG2 and PLC/PRF/5; conditions: high doses of 10 or 20 μM; cited from earlier work
hiPSC-CMs [9] = assay: Nuclear condensation / nuclear morphology / cell number, Hoescht staining; assay type: cell-based, human
Procedure: (§1) Cells were incubated with Mitotracker Deep Red FM dye (200 nM; Thermo Fisher Scientific) and Hoescht 33342 dye (5 μg/ml; Thermo Fisher Scientific) for 30 min at 37° C., after which they were fixed with 4% paraformaldehyde at room temperature for 15 min followed by 15 min wash with PBS and imaged with a Leica THUNDER Imager microscope or Nikon AIR HD25 confocal microscope.
Similarly, nuclei were scored as normal (relatively large nuclei with regular shape) or condensed (intensely stained nuclei with irregular shape) by a technician blinded to the identities of the samples.
Nuclear condensation is a sign of apoptosis and manifest as brightly-stained, small and ‘condensed’ nuclei.

hiPSC-CMs [10] = assay: Mitochondrial mass, mitotracker dye (MTDR) intensity; assay type: cell-based, human; conditions: 0.1-12.5 μM, 3 days, normoxic and hypoxic
Procedure: as §1
The first consisted of densely organised, elongated mitochondrial networks spread throughout the cytoplasm and this is considered to represent a healthy balance of fission and fusion. The second had punctate, fragmented mitochondria consistent with increased fission.

hiPSC-CMs [11] = assay: Mitochondrial membrane potential (Δψm), TMRE; assay type: cell-based, human; conditions: 3 days, treated vs control
Procedure: Δψm was measured using the tetramethylrhodamine, ethyl ester (TMRE), a potentiometric dye whose fluorescent intensity is proportional to the mitochondrial potential. CMs were plated into Matrigel-coated surfaces in RPMI/B27 medium. Cells were incubated with TMRE (25 nM; Thermo Fisher Scientific) for 30 min at 37° C., after which they were washed with DPBS and intensity of fluorescence was measured using the Synergy HTX plate-reader (Biotek, Winooski, Vt.) with excitation and emission wavelengths of 540 nm and 590 nm.

[12] = cited from earlier work
[13] = cited from earlier work; for peak plasma concentration: healthy adult volunteers; for Cmax: healthy volunteers, read-out: Cmax / peak plasma concentration
hiPSC-CMs [14] = system: hiPSC-CMs; remark: listed apart in the source
[15] = co-treatment with 12.5 μM remdesivir

Chain of human mitochondrial RNA polymerase (O00411 42-1230): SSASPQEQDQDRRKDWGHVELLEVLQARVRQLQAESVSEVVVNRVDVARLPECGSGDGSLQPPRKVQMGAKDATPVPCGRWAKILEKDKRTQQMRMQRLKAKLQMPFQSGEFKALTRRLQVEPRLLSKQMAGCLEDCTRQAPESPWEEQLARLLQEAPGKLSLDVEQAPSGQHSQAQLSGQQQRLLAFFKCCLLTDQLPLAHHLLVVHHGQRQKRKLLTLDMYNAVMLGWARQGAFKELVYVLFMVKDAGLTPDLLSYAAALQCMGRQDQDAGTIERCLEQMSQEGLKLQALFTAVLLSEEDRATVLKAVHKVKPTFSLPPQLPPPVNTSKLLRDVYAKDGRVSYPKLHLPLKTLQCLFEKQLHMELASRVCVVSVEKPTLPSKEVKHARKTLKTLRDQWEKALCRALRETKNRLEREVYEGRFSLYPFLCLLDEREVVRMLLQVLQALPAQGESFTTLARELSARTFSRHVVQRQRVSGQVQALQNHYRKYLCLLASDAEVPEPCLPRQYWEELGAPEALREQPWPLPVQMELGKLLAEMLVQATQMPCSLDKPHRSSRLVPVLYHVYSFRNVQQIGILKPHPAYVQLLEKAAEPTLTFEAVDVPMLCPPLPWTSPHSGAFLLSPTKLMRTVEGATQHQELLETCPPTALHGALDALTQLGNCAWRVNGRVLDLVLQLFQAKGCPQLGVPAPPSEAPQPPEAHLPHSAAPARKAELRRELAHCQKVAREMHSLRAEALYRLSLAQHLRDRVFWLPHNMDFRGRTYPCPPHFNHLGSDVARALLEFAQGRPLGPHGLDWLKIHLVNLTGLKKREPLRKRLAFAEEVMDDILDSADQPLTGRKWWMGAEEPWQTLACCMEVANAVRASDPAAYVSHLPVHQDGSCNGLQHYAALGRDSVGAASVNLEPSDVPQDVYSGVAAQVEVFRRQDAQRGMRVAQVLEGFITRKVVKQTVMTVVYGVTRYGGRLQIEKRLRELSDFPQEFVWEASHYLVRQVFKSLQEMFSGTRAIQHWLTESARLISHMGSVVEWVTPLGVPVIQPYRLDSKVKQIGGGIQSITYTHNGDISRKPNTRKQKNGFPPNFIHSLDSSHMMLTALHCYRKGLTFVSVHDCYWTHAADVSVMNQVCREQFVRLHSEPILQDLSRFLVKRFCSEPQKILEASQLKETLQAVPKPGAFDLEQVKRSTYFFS

Compound: COc1nc(N)nc2c1ncn2[C@@H]1O[C@H](COP(=O)(N[C@@H](C)C(=O)OCC(C)(C)C)Oc2cccc3ccccc23)[C@@H](O)[C@@]1(C)O (some centres unmarked) [BMS-986094]
- mitochondrial morphology (MTDR dye) (hiPSC-CMs [1]): punctate (arrowhead) or perinuclear (arrow) mitochondria
- proportion of cells with healthy elongated mitochondria (hiPSC-CMs [1]): reduced

Compound: COc1cc(-n2c(=S)[nH]c3ccccc3c2=O)c(Cl)cc1Cl [mdivi-1]
- proportion of cells with elongated mitochondria (hiPSC-CMs [1]; MD 15 mM, (FIG. 5B)): increased the proportion of cells with elongated mitochondria
- formation of elongated mitochondria vs remdesivir alone (hiPSC-CMs [1]; co-treatment with 2.5 μM remdesivir, normoxic): significantly promoted the formation of elongated mitochondria
- protection of mitochondrial morphology (hiPSC-CMs [1]; [15]): could only significantly protect hiPSC-CMs under hypoxic but not normoxic conditions
- proportion of cells with punctate mitochondria vs remdesivir alone (hiPSC-CMs [1]; co-treatment with remdesivir, hypoxia): corresponding decrease
- sarcomeres (MLC2V-eGFP) (hiPSC-CMs [2]; MD 15 mM co-treatment vs remdesivir alone (FIG. 5D)): more striated sarcomeres
- sarcomere arrangement (hiPSC-CMs [2]; co-treatment with 2.5 μM and 12.5 μM remdesivir): improved the sarcomere arrangement
- redox potential (hiPSC-CMs [3]; co-treatment with 2.5 μM remdesivir, normoxic and hypoxic): restored redox potential
- redox potential (hiPSC-CMs [3]; [15]): did not have noticeable effect

Compound: N#C[C@@]1(c2ccc3c(N)ncnn23)O[C@H](COP(=O)(O)OP(=O)(O)OP(=O)(O)O)[C@@H](O)[C@H]1O [remdesivir-triphosphate]
- selectivity value (discrimination against the analogue) [4]: ~500 fold

Compound: CCC(CC)COC(=O)[C@H](C)N[P@](=O)(OC[C@H]1O[C@@](C#N)(c2ccc3c(N)ncnn23)[C@H](O)[C@@H]1O)Oc1ccccc1 [remdesivir]
- ATP6 mRNA expression [5]: dose-dependently and significantly reduced
- COX6A2 mRNA expression [5]: dose-dependently and significantly reduced
- ND1 mRNA expression [5]: dose-dependently and significantly reduced
- ND5 mRNA expression [5]: dose-dependently and significantly reduced
- persistent functional alterations (hiPSC-CMs [6]): did not induce persistent functional alterations
- QT intervals (hPSC-CMs): prolong QT intervals
- spontaneous firing frequency (hiPSC-CMs [7]): 0.36±0.07 Hz
- mitochondrial toxicity [8]: demonstrated
- proportion of condensed nuclei (hiPSC-CMs [9]; 2.5 μM and 12.5 μM, three days after treatment (recovery)): dose dependent increase
- cell number (hiPSC-CMs [9]; 3 days, all samples): No significant difference
- number / proportion of cells with condensed nuclei (hiPSC-CMs [9]; immediately after 3 days of treatment): did not reveal any significant increase; also recorded: no statistically significant difference
- mitochondrial morphology, treated vs control (hiPSC-CMs [1]; 0.5 μM, 3 days treatment + 3 days recovery): no significant difference
- proportion of cells with punctate, fragmented mitochondria (hiPSC-CMs [1]; 0.5 μM, normoxic): 44.4±7.1%
- proportion of cells with punctate mitochondria (hiPSC-CMs [1]; 2.5 μM): 66.1±1.1%
- elongated mitochondria (hiPSC-CMs [1]; 2.5 μM): 19.7±2.5%
- proportion of punctate mitochondria (hiPSC-CMs [1]; 2.5 μM): 64.4±4.1%
- proportion of elongated mitochondria (hiPSC-CMs [1]; 2.5 μM): 18.7±3.0%
- proportion of cells with punctate, fragmented mitochondria (hiPSC-CMs [1]; 2.5 μM, normoxic): 57.3±7.2%
- proportion of cells with punctate mitochondria (hiPSC-CMs [1]; 12.5 μM): 65.5±6.6%
- elongated mitochondria (hiPSC-CMs [1]; 12.5 μM): 4.6±2.1%
- proportion of cells with perinuclear mitochondria (hiPSC-CMs [1]; 12.5 μM, 3 days treatment + 3 days recovery (follows the hypoxic data), control 6.5±1.5%): 29.9±5.7%
- proportion of punctate mitochondria (hiPSC-CMs [1]; 12.5 μM): 58.9±8%
- proportion of elongated mitochondria (hiPSC-CMs [1]; 12.5 μM): 17.8±4.2%
- proportion of cells with punctate, fragmented mitochondria (hiPSC-CMs [1]; 12.5 μM, normoxic): 64.4±9.5%
- perinuclear mitochondria (hiPSC-CMs [1]; 3 days treatment + 3 days recovery (FIG. 4C)): enriched
- proportion of cells with healthy elongated mitochondria (hiPSC-CMs [1]): reduced
- sarcomeric arrangement (hiPSC-CMs [2]; 0.5 μM, 3 days, hypoxia): induced the thinning and truncation of myofibrils
- sarcomeric arrangement (hiPSC-CMs [2]; 2.5 μM and 12.5 μM, 3 days treatment + 3 days recovery): disorganised sarcomeric arrangement
- sarcomeric arrangement (hiPSC-CMs [2]; 0.1 and 0.5 μM, 3 days, normoxic): did not have any noticeable effect
- sarcomeric arrangement (hiPSC-CMs [2]; 2.5 and 12.5 μM, 3 days, normoxic and hypoxic): greatly disorganised myofibrils
- effect on redox potential (hiPSC-CMs [3]; 0.1 μM and 0.5 μM, 3 days, normoxic and hypoxic): negligible effects
- decrease of redox potential (hiPSC-CMs [3]; 2.5 μM, 3 days hypoxic treatment + 3 days recovery without drug): 41.0±8.7%
- decrease of redox activity (hiPSC-CMs [3]; 2.5 μM, 3 days, hypoxic (2.5% O2)): 22.5±5.4%
- decrease of redox activity (hiPSC-CMs [3]; 2.5 μM, 3 days, normoxic): 21.0±3.9%
- decrease of redox potential (hiPSC-CMs [3]; 12.5 μM, 3 days hypoxic treatment + 3 days recovery without drug): 54.6±8.5%
- decrease of redox potential (hiPSC-CMs [3]; 12.5 μM, 3 days normoxic treatment + 3 days recovery without drug): 44.1±8.1%
- decrease of redox activity (hiPSC-CMs [3]; 12.5 μM, 3 days, hypoxic (2.5% O2)): 28.7±6.9%
- decrease of redox activity (hiPSC-CMs [3]; 12.5 μM, 3 days, normoxic): 35.9±4.0%
- mitochondrial mass (hiPSC-CMs [10]): not statistically different
- depolarisation of mitochondrial membrane potential (Δψm) (hiPSC-CMs [11]): No statistically significant decrease
- rate of cardiac death ([12]; WHO Solidarity trial, comparator 0.4%): 0.3%
- serious atrial fibrillation ([12]; one clinical study, placebo 0.2%): 0.9%
- risk of cardiac arrest ([12]; one clinical study, placebo 1.4%): 1.9%
- peak plasma concentration ([13]; day 1 (200 mg)): 5.4 µg/mL
- peak plasma concentration ([13]; day 5): 2.6 µg/mL
- Cmax ([13]; day 1 (200 mg)): 8.9 µM
- Cmax ([13]; day 5): 4.3 µM

Compound: NC(=O)c1ncn([C@@H]2O[C@H](CO)[C@@H](O)[C@H]2O)n1 [ribavirin]
- mitochondrial morphology (MTDR dye) (hiPSC-CMs [1]): primarily had elongated mitochondria
- proportion of cells with healthy elongated mitochondria (hiPSC-CMs [14]): did not have noticeable effect

Compound: β-D-N4-hydroxycytidine
- mitochondrial morphology (MTDR dye) (hiPSC-CMs [1]): punctate (arrowhead) or perinuclear (arrow) mitochondria
- proportion of cells with healthy elongated mitochondria (hiPSC-CMs [1]): reduced
